Assay results taken from patent publication US20260355199A1, “COMPOSITIONS AND METHODS FOR TREATING OR PREVENTING NONALCOHOLIC STEATOHEPATITIS (NASH), ANOREXIA, DEPRESSION, ENDOMETRIOSIS, AND OTHER DISEASES OR DISORDERS” (priority 2022, published 2026).
“Also recorded” adds a separate entry of the source.

How the values were obtained:
NPY and VGAT = NPY and VGAT expression in leptin-treated GT1-7 cells; assay type: cell-based, mouse; conditions: TET3-dependent manner
Procedure: Mouse GT1-7 hypothalamic neuronal cell line (Sigma-Aldrich, SCC116), human SH-SY5Y neuronal blastoma cell line (ATCC, CRL-2266), and embryonic mouse hypothalamus cell line N11 (mHypoE-N11) (Cedarlane, CLU107) were purchased and cultured according to the manufacturers' instructions. For siRNA transfection in a 24-well plate scale, cells were seeded at a density of 2×10^5 cells/well the day before transfection. To prepare siRNA transfection solution for each well of cells, 5 pmol of NT siRNA (non-targeting control siRNA, AM4636, Ambion), Tet3 siRNA (siRNA specifically targeting mouse Tet3, 4390815/s101483, Ambion), or TET3 siRNA (siRNA specifically targeting human TET3, 4392420/s47238, Ambion) (Cao et al., 2019, Oncogene, 38:5356-5366; Xu et al., 2020, Cell Rep., 30:1310-1318) were mixed with 25 μl of OPTI-MEM (Gibco, 31985-070) by gentle pipetting (Cao, T. et al., 2019, Oncogene, 38:5356-5366; Xu, Y. et al., 2020, Cell Reports, 30:1310-1318 e5). In parallel, 1.5 μl of Lipofectamine RNAiMAX (Invitrogen, 13778-150) was mixed with 25 μl of OPTI-MEM by gentle pipetting. Following 5 min of incubation at room temperature, the resulting 50 μl of transfection solution was added to one well of cells containing 1 ml culture media. […]

TET3 = TET3 protein in RAW 264.7 cells; assay type: cell-based, mouse; conditions: RAW 264.7, 10 μM, 24 h
Procedure: For siRNA transfection in a 24-well plate scale of Raw 264.7 cells, 10 pmol of NT siRNA (AM4636, Ambion) or Tet3 siRNA (4390815/s101483, Ambion) was mixed with 100 μL of OPTI-MEM (Gibco, 31985-070) by gentle pipetting. In parallel, 3 μL of Lipofectamine RNAiMAX (Invitrogen, 13778-150) was mixed with 100 μL of OPTI-MEM by gentle pipetting. Following 5 min of incubation at RT, the two were combined and the resulting 200 μL of transfection solution was added to each well of cells. After 24 h of incubation at […] in a 5% humidified CO2 tissue culture incubator, 300 μL of growth media was added and incubation was continued until cell harvesting.
Bobcat339 Treatment of Cultured Cells Bobcat339 powder (Sigma-Aldrich, SML2611) was freshly dissolved in DMSO at a concentration of 5 mM and filtered through a 0.22 micron. Cells grown at a density of 80-90% were incubated in growth media with vehicle (DMSO) or Bobcat339 at a final concentration of 10 μM for 24 h, followed by RNA and protein extraction.
For TET3 expression restoration experiments, cells seeded in 24-well plates were infected with Ad-GFP or Ad-TET3 at 4000 gc/cell. Following 16 h of infection, vehicle or Bobcat339 were added at a final concentration of 10 μM. Protein and RNA were isolated 48 hours later and analyzed. […]

RAW 264.7 cells = assay: TUNEL assay in RAW 264.7 cells; assay type: cell-based, mouse; conditions: RAW 264.7, 10 μM, 48 h
Procedure: For TET3 expression restoration experiments, cells seeded in 24-well plates were infected with Ad-GFP or Ad-TET3 at 4000 gc/cell. Following 16 h of infection, vehicle or Bobcat339 were added at a final concentration of 10 μM. Protein and RNA were isolated 48 hours later and analyzed.
These were performed using the In Situ Cell Death Detection Kit (Sigma Aldrich, 12156792910). Briefly, cells were fixed with 4% paraformaldehyde in PBS for 1 h at RT and rinsed with PBS, followed by permeabilization with 0.1% Triton X-100 in 0.1% sodium citrate for 2 min on ice. TUNEL reaction mixture was added and incubation was carried out at 37 °C for 60 min. DAPI was added to counter-stain the cells for 1 min. The slides were coverslipped and scoped using a Keyence BZ-X700 fluorescence microscope.

TET2 = TET2 protein stability (cycloheximide) in MDMs; assay type: cell-based, human; conditions: 10 μM, with cycloheximide
Procedure: For TET protein stability assay of MDMs, cells in 24-well plates were incubated with vehicle or Bobcat339 at a final concentration of 10 μM for 3 h, followed by addition of cycloheximide (CHX, Cell Signaling, 2112) at a final concentration of 50 μg/mL. Proteins were harvested at 0, 2, 4, and 6 hours after addition of CHX.

Compound	NPY and VGAT expression (NPY and VGAT)	TET3 protein level (TET3)	apoptosis (TUNEL) (RAW 264.7 cells)	apoptosis (TUNEL) (RAW 264.7 cells; with Ad-TET3)	TET2 protein stability (TET2)
leptin: adipose hormone; mouse leptin L3772-1MG or human leptin L4146-1MG, Sigma Aldrich	negatively affected the expression of NPY and VGAT				
Nc1nc(=O)n(-c2cccc(-c3ccccc3)c2)cc1Cl [Bobcat339, 4-Amino-1-[1,1′-biphenyl]-3-yl-5-chloro-2(1H)-pyrimidinone]		decreased the levels of TET3 protein; also recorded: decreased the level of TET3; also recorded: a decrease in TET3 at the protein level	induced apoptosis; also recorded: a significant increase in apoptotic cell death	reversed by overexpression of TET3; also recorded: not seen when TET3 was overexpressed	destabilized both proteins
